Laboratory results as given in patent US20170362388A1, “Disulfide Polymers and Methods of Use” (The Brigham and Women's Hospital, Inc., priority 2014, published 2017).
In brackets after ≈: the same amount, converted by molar mass.

Legend:
[1] = tested on: A549 Human Lung Carcinoma Xenograft; assay: Antitumor efficacy of docetaxel-loaded NPs; assay type: in vivo, mice; details: 5 mg/kg docetaxel equivalent, iv tail vein, two injections
Method: A549 cell suspension (100 μL, equivalent to 5×10^6 cells) was first mixed with 100 μL Matrigel (BD scientific Co.), then subcutaneously injected into the right flank of 5-week-old female athymic nude mice (Charles River). The treatment was initiated on the 9th day, when solid tumor reached ˜100 mm^3. Tumor-bearing mice were divided into 4 groups and injected […] on the 9th and 23rd days after tumor inoculation with: (i) 1× PBS (ii) docetaxel 5 mg/kg (MTD), (iii) Cys-OMe-8/Cys-8E NPs at a docetaxel equivalent dose of 5 mg/kg (MTD), (iv) Cys-OMe-8/Cys-8E NPs at a docetaxel equivalent dose of 10 mg/kg. Control or drugs were administered by intravenous injection in the lateral tail vein (10 μL per g of body weight). Tumor dimension and body weight were recorded every other day. Tumor volume was calculated as follows: Volume [mm^3]=[…]. Mice were regularly monitored (every other day) for physical performance and were euthanized upon exceeding 15% weight loss, over 1500 mm^3 volume or if tumor ulceration was observed. Prior to the experiment, the maximum tolerated dose (MTD) of free docetaxel was established in normal Balb/c mice at 5 mg/kg. Tumor volumes at Day 30 were compared using the ANOVA analysis.
FIG. 30 is a plot of the antitumor effects of docetaxel-loaded Cys-OMe-8/Cys-8E nanoparticles in A549 tumor bearing mice. […]

[2] = tested on: Hela and DU145 cells; assay: In vitro anticancer performance of docetaxel-loaded NPs, alamar blue; assay type: cell-based
Method: Hela, MCF-7, A549, and DU145 cells were used to evaluate in vitro anticancer performance of docetaxel-loaded NPs (Cys-OMe-8/Cys-8E NPs with 10 wt % docetaxel loaded with docetaxel concentration ranging from 1 ng/ml to 500 ng/mL). Hela, MCF-7, A549, and DU145 cells were used. Cells (5,000 cells/well) were seeded in 96-well plates the day before use, and cultured according to recommendations from ATCC. Cells were treated with different concentrations of free docetaxel or docetaxel loaded NP for 4 h or 48 h (N=5). For the 4 h experiment, treated cells were washed twice with PBS buffer and the plate was incubated for another 44 h after replacement of fresh medium. Cell viability at 48 h was determined by alamar blue assay. As a control, the polymer cytotoxicity on Hela cells was ascertained using empty NPs.
In FIGS. 24B and 24D: DU145 cells were treated with docetaxel-loaded NPs for 4 h and 48 h, respectively.
The Alamar blue assay was used to evaluate the NP cytotoxicity. Briefly, 10% 0.1 mg/mL alamar blue was first added into each well and the plate was incubated for another 2 h. Then the fluorescence intensity was measured by a microplate reader (excitation/emission=530 nm/590 nm).

[3] = Maximum tolerated dose; details: mouse, in vivo; normal Balb/c mice

SMILES: CC(=O)O[C@@]12CO[C@@H]1C[C@H](O)[C@@]1(C)C(=O)[C@H](O)C3=C(C)[C@@H](OC(=O)[C@H](O)[C@@H](NC(=O)OC(C)(C)C)c4ccccc4)C[C@@](O)([C@@H](OC(=O)c4ccccc4)[C@H]21)C3(C)C [docetaxel]
- Tumor inhibition [1]: only limited tumor inhibition
- IC50 ([2]; 4 h treatment, viability at 48 h): ~0.1 µg/mL (≈ 0.124 µM)
- IC50 ([2]; 48 h treatment): ~0.005 µg/mL (≈ 0.00619 µM)
- MTD [3]: 5 mg/kg
